Test results from patent US11332439B2, “Anthocyanin complex synthesized from date palm leaf extract” (UNITED ARAB EMIRATES UNIVERSITY, priority 2020, dated 2022).

Assay: Antioxidant activity using DPPH as a free radical (Brand-Williams method)
Assay type: biochemical
Details: for antiradical power (ARP): ARP=I/EC50, larger ARP indicates a more efficient antioxidant; for time to reach steady state in reaction with DPPH*: reaction kinetics, absorbance at 515 nm, methanol
Description: Antioxidant activity of the co-pigmented anthocyanin complex was assessed using DPPH as a free radical according to the Brand-Williams method. Activity of the co-pigmented anthocyanin complex was compared with two known antioxidants, ascorbic acid and Trolox. Concentrations tested are expressed as moles of antioxidant per mole DPPH. Briefly, an antioxidant solution in methanol (0.1 ml) was added to 3.9 ml of a 6×10^−5 mol/L methanol DPPH* solution. The decrease in absorbance was determined at 515 nm at 0 min, 1 min, and every 15 min until the reaction reached a plateau. The extract initial DPPH* concentration (CDPPH) in the reaction medium was calculated from a calibration curve with the equation Abs515 nm=0.0765×(CDPPH)+0.1118 as determined by linear regression (R2=0.9994). For each antioxidant concentration tested, the reaction kinetics were plotted (see FIGS. 6A-6C). From these graphs, the percentage of DPPH* remaining at the steady state was determined, and the values were transferred onto another graph showing percentage of residual DPPH* at the steady state as a function of the molar ratio of antioxidant to DPPH*. Antiradical activity was defined as the amount of antioxidant necessary to decrease the initial DPPH* concentration by 50% (Efficient Concentration=EC50 (mol/L)). The results were analyzed in terms of antiradical power (ARP), with a larger ARP indicating a more efficient antioxidant (ARP=I/EC50 AO/(mol/L) DPPH*).

Row | Compound | antiradical power (ARP) | time to reach steady state in reaction with DPPH*
1 | Cc1c(C)c2c(c(C)c1O)CCC(C)(C(=O)O)O2 (stereo not shown) [Trolox] | 4.65 | less than a minute
2 | O=C1O[C@H]([C@@H](O)CO)C(O)=C1O [ascorbic acid] | 0.329 | approximately 30 minutes
